{"source": "patent US20250340837A1", "about": "“CELLS” (University of Geneva, priority 2022, published 2025)", "molecules": {"B1": {"name": "neurotrophin-3 (protein, UniProt P20783 139-257, looked up)", "Neurotrophin-3": "YAEHKSHRGEYSVCDSESLWVTDKSSAIDIRGHQVTVLGEIKTGNSPVKQYFYETRCKEARPVKNGCRGIDDKHWNSQCKTSQTYVRALTSENNKLVGWRWIRIDTSCVCALSRKIGRT"}, "B2": {"name": "brain-derived neurotrophic factor (protein, UniProt P23560 19-247, looked up)", "Neurotrophic factor BDNF …": "APMKEANIRGQGGLAYPGVRTHGTLESVNGPKAGSRGLTSLADTFEHVIEELLDEDQKVRPNEENNKDADLYTSRVMLSSQVPLEPPLLFLLEEYKNYLDAANMSMRVRRHSDPARRGELSVCDSISEWVTAADKKTAVDMSGGTVTVLEKVPVSKGQLKQYFYETKCNPMGYTKEGCRGIDKRHWNSQCRTTQSYVRALTMDSKKRIGWRFIRIDTSCVCTLTIKRGR", "notes": "neurotrophin"}}, "key": {"[1]": {"test_system": "phoenix auditory neurons", "experiment": "Induced Ca2+ cytosolic release (FLUO-8) in differentiated phoenix auditory neurons", "assay_type": "cell-based, mouse", "conditions": "for EC50: D7 differentiated phoenix SGCs, dose response from max-min amplitude, read-out: EC50 of induced Ca2+ transients; for Induction of Ca2+ transients: phoenix auditory neurons after 7 days of differentiation", "protocol": "(A-C) Kinetics of Ca^2+ transients induced by (A) Glutamate (higher trace for the higher concentration), (B) ATP (higher trace for the higher concentration), (C) Kainate in phoenix auditory neurons after 7 days of differentiation. Phoenix auditory neurons were loaded with Ca^2+ sensitive ratiometric probe (FLUO-8) and stimulated with increasing concentrations of glutamate ([…]), ATP (0.005-10 μM) or kainate (0.02-50 μM). (D) Dose response curves were extracted from the max-min amplitude values, allowing the determination of an EC50 value (in order of highest to lowest effect: Ionomycin, ATP, Glutamate, Thapsigargin and Kainate (no effect for Kainate). (E). Ionomycin and Thapsigargin were used as positive control. Data represent the average+/−SEM of 3 independent experiments.\nA total of 32,000 cells/well were differentiated to auditory neurons on a 96-well plate coated with Matrigel, as previously described (Rousset et al., 2020). Differentiated cells were loaded with FLUO-8 (Interchim), according to the manufacturer's protocol. After an incubation period of typically 45 min at 37° C. with the inducing agent or control, the induced cytosolic calcium release was assessed in a FDSS/pCELL Functional Drug Screening System (Hamamatsu). The neuronal kinetics of calcium release was followed over about 10 min following treatment, with one measure every 0.5 s.\n(§1) To further explore the excitatory function of differentiated phoenix SGCs, Ca2+ mobilization was studied in response to several physiological stimuli, namely glutamate, ATP, and kainate (FIG. 4). […] Ionomycin, an ionophore facilitating the transport of divalent cations across cell membranes, and thapsigargin, inhibiting the SERCA pump and therefore the transfer of Ca^2+ toward endoplasmic reticulum, were used as positive controls (FIG. 4D). The excitatory pattern of phoenix SGCs was also compared with human fetal sphere-derived ones and mouse spiral ganglion explants using live Ca^2+ imaging. […] Therefore, at any passage and following differentiation, phoenix auditory SGCs resemble the auditory neuron physiology.\nFurther, the impact of BDNF and NT-3 alone or in combination on phoenix auditory neurons' glutamatergic function was assessed. Phoenix neuroprogenitors were plated on poly-ornithine and laminin coated 96 well plates and differentiated for 7 days with or without BDNF and NT-3 alone or in combination. To assess effect of neurotrophins, the auditory neuron were stimulated twice with glutamate: first with 10 μM (EC90) and 10 min later with 100 μM, eliciting a maximal glutamatergic response (FIG. 15A). Traces show the Ca2+ mobilization kinetics with 50 ng/mLNT-3+25 ng/mL BDNF (top light curve) or without neurotrophins (bottom dark curve) upon glutamate stimulation as recorded with Ca2+ sensitive ratiometric probe (FLUO-8). Arrows show the max-min amplitude of the response following the first (10 μM) or the second (100 μM) glutamate stimulation. Heatmaps showing the effect of BDNF and NT-3 alone or in combination on Ca2+ release (min-max amplitude) induced by 10 μM glutamate (FIG. 15B) and 100 μM glutamate (FIG. 15C)."}, "[2]": {"test_system": "C57Bl/6 ANPGs", "experiment": "Neurosphere growth and self-propagation induction in low stemness ANPGs", "assay_type": "cell-based, mouse", "procedure": "(B) Picture showing representative triplicate of ANPG spheres cultured for 1 month in a 96 well plate. Phoenix cells are used as positive control. C57Bl/6: ANPGs were cultured in DMEM:F12+N2 and B27 supplements without growth factors. +GF: DMEM:F12+N2 and B27+FGF 10 ng/mL+EGF 20 ng/mL+IGF 50 ng/mL+Heparan Sulfate 50 ng/mL. GF+DS:DMEM:F12+N2 and B27+IGF+EFG+HS+FGF+LDN193189 0.5 μM+SB431542 10 μM. GF+CHIR: DMEM:F12+N2 and B27+IGF+EFG+HS+FGF+CHIR99021 3 μM. +GF+CHIR+DS: DMEM:F12+N2 and B27+IGF+EFG+HS+FGF+LDN193189 0.5 μM+SB431542 10 μM+CHIR99021 3 μM. Phoenix+GF: phoenix ANPG cultured in standard conditions (DMEM:F12+N2 and B27+IGF+EFG+HS+FGF). (C) Graph showing the average sphere area at different time points (up to 38 days). […] (D) Following DNA staining, flow cytometry was performed to determine the percentage of cells engaged in the cell cycle (phase S/G2M; proliferating). […] (E) After reprogramming, ANPGs were differentiated on Matrigel coating following removal of mitogenic factors. […]\n(B) Representative pictures of ANPG spheres 4 days following the first passage cultured in “standard” conditions (GF) or (C, left) in conditions to induce stemness (GF+LDN193189 0.5 μM+SB431542 10 μM+CHIR99021 3 μM). […] (D) At every passage, following dissociation with Accutase, ANPGs were counted with a fast read counting chamber. […]"}, "[3]": {"test_system": "C57Bl/6 ANPGs", "experiment": "Stemness reprogramming screen with pharmacological modulators plus CHIR99021", "assay_type": "cell-based, mouse", "conditions": "30 days, with CHIR99021 3 μM", "procedure": "(C) C57Bl/6 ANPGs were plated at 10,000 cells/well of a 96 well plate and treated with the WNT agonist (CHIR99021; 3 μM) and the above mentioned compounds (B) for 30 days. Graph representing the average growth (% ANPGs cultured in presence of GF+CHIR) after 30 days. […] Data represent the average±SEM of three independent experiments.\nC57Bl/6 ANPGs were plated at 10,000 cells/well of a 96 well plate and treated with the WNT agonist (CHIR99021; 3 μM) and various modulator(s)."}, "[4]": {"test_system": "stemness-induced ANs", "experiment": "Glutamate-induced Ca2+ response in stemness-induced auditory neurons (Regenix)", "assay_type": "cell-based, mouse", "protocol": "FIG. 21 Phenotypical characterization of stemness induced Auditory Neurons (ANs). (A) C57Bl/6 ANPG, were treated with WNT agonist (CHIR99021; 3 μM) or TGFb antagonist (dual SMAD inhibitors; LDN193189 0.5 μM, SB431542 10 μM) aiming at replicating phoenix ANPG stemness phenotype. After 38 days of induction, stemness-induced ANPGs were differentiated on Matrigel coating following removal of mitogenic factors. BDNF (10 ng/mL), NT-3 (50 ng/mL) and LIF (10 ng/mL) were added during the 7 days of differentiation. (B-E) Immunostainings in differentiated ANs were compared to stemness-induced ANPGs neurospheres at the same passage. (B-B′) B-III tubulin (TUJ, green) and Sox2 (red) stainings were respectively performed in (B) ANPGs and (B′) ANs. (C-C′) B-III tubulin (TUJ, green) and Nestin (Nes, red) stainings were respectively performed in (C) ANPGs and (C′) ANs. D-D′) B-III tubulin (TUJ, green) and S100 (red) stainings were respectively performed in (D) ANPGs and (D′) ANs. E-E′) B-III tubulin (TUJ) and KI67 stainings were respectively performed in (E) ANPGs and (E′) ANs. TUJ staining appears in green in ANPGs and red in ANs and KI67 appears in red in ANPGs and in green in ANs. […] (F-G) Excitatory potential of stemness-induced ANs was tested using live Ca^2+ imaging. Stemness-induced ANPGs were differentiated for 7 days in absence of growth factors. […]"}, "[5]": {"test_system": "human fetal sphere-derived SGCs", "experiment": "Live Ca2+ imaging in human fetal sphere-derived SGCs", "assay_type": "cell-based", "text": "as §1"}, "[6]": {"test_system": "mouse spiral ganglion explants", "experiment": "Live Ca2+ imaging in mouse spiral ganglion explants", "assay_type": "cell-based", "text": "as §1"}, "[7]": {"test_system": "phoenix auditory neurons", "experiment": "Morphology of phoenix auditory neurons differentiated with neurotrophins (Imaris)", "assay_type": "cell-based, mouse", "conditions": "72 h differentiation; peaking at 100 ng/mL", "protocol": "FIG. 14 Impact of BDNF and NT-3 supplementation on morphology of phoenix auditory neurons. Phoenix neuroprogenitors were differentiated for 72 h in presence of various concentrations of BDNF or NT-3 in 96-well plates. […] (A-D) The untreated control is represented by the bar in the left of each of the four graphs, BDNF treated specimens in the bars in the middle of each of the four graphs, and NT-3 treated by the bars on the right of each of the four graphs. The dashed horizontal grey line marks the median of the control group. The numbers on the x-axis denote neurotrophin concentrations in ng/ml. The horizontal lines in the boxes denote the median value and the dots the mean value. Whiskers extend from minimum to maximum. […] Exemplary images of differentiated cells after 72 h in culture and immunohistochemical staining without treatment (E) and supplementation of 100 ng/mL BDNF (F) and 100 ng/mL NT-3 (G). (E-G) Scale bar: 100 μm.\n(§2) Organotypic spiral ganglion explant culture was carried out prior to in vitro phoenix sphere derived neuron assays, as shown in the workflow in FIG. 12. […] After fixation, specimens were stained with DAPI and for β-III-tubulin (TuJI antibody) to address the effect of neurotrophins on neurite outgrowth and neuron numbers, quantified with a modified Sholl analysis routine. For each explant, the neurite length index (NLI) was computed, and associated intersection counts served as approximation for neuron numbers. The lower rows show phoenix auditory neuroprogenitor sphere dissociation and induction of differentiation. To assess the outgrowth morphology, cells were seeded at 7,000 cells/well with presence of NT-3 or BDNF for 72 h. Differentiated cells were stained for β-III-tubulin, GFAP and DAPI for morphological analysis. Parameters such as the total neurite outgrowth, the number of neurons, the number of glial cells and the mean neurite length were assessed using a custom-made Imaris procedure. For a functional evaluation by means of a calcium response assay to glutamate, 30,000 cells were seeded per well and differentiated with supplementation of BDNF, NT-3 or combinations thereof. Via a fluorescent calcium binding dye, the cellular response to glutamate was quantified.\nThe impact of BDNF and NT-3 supplementation on morphology of phoenix auditory neurons was also assessed. Phoenix neuroprogenitors were differentiated for 72 h in presence of various concentrations of BDNF or NT-3 in 96-well plates."}, "[8]": {"test_system": "spiral ganglion explants (SGE)", "experiment": "Organotypic spiral ganglion explant culture, neurite outgrowth and intersections (modified Sholl analysis)", "assay_type": "cell-based, mouse", "conditions": "P7 SGE, 96 h; for Neurite outgrowth (neurite length index, NLI): compared to spontaneous outgrowth", "protocol": "FIG. 13 Effect of BDNF and NT-3 alone or in combination on organotypic spiral ganglion explant culture morphology. Spiral ganglion explants (SGE) of freshly dissected P7 old mouse pups were seeded in poly-D-lysin and laminin coated 96 well plates and incubated without (n=94) or with BDNF, NT-3 or combinations of these for 96 h. Neurite outgrowth (A-C) and intersections (D-F) were quantified with representative explant micrographs underneath (G) for the given treatments. Numbers indicate the amount of neurotrophin added in ng/ml. […] In controls, a substantial outgrowth with a mean NLI of 20828 (±5647/4442; n=94), was registered. […] (D-F) Bar graphs show the intersection quantification, representing the approximated number of neurons with outgrowth. […] (A-F) Bars represent geometric means in μm; error bars indicate ±upper and lower 95% confidence intervals for the mean. The shaded area in the bottom section of each graph represents control levels (i.e. levels for samples that were not treated with BDNF and/or NT-3). One-way ANOVA, followed by Tukey-Kramer post-hoc test. Dunn non-parametric comparison with control, *p<0.05, **p<0.01, ***p<0.001.\nas §2\nThe effect of BDNF and NT-3 alone or in combination on organotypic spiral ganglion explant culture morphology was assessed. […] Neurite outgrowth (FIG. 13 A-C) and intersections (FIG. 13 D-F) were quantified. […]"}}, "data": [{"molecule": "Nc1ncnc2c1ncn2[C@@H]1O[C@H](COP(=O)(O)OP(=O)(O)OP(=O)(O)O)[C@@H](O)[C@H]1O", "note": "[ATP]", "values": [{"measurement": "EC50", "setting": "[1]", "result": 0.43, "unit": "µM"}, {"measurement": "Induction of Ca2+ transients", "setting": "[1]", "result": "Robust Ca^2+ transients"}]}, {"molecule": "Cc1c[nH]c(-c2cnc(NCCNc3ccc(C#N)cn3)nc2-c2ccc(Cl)cc2Cl)n1", "note": "[CHIR, CHIR99021]", "values": [{"measurement": "ability of treated ANPGs to differentiate into neurons and glial cells", "setting": "[2]; 7 days differentiation on Matrigel, BIII-tubulin and S-100 staining", "result": "able to differentiate into neurons"}, {"measurement": "expansion over passages", "setting": "[2]; number of cells/passage up to passage 13", "result": "not able to expand"}]}, {"molecule": "COc1cc(-c2cc(-c3cccc(O)c3)cnc2N)cc(OC)c1OC", "note": "[compound 48, K02288]", "values": [{"measurement": "stemness reprogramming, average growth (% ANPGs cultured in presence of GF+CHIR)", "setting": "[3]", "result": "hits"}]}, {"molecule": "N[C@@H](CCC(=O)O)C(=O)O", "note": "[glutamate]", "values": [{"measurement": "Ca2+ response, live Ca2+ imaging", "setting": "[4]; glutamate 100 uM, siANs differentiated for 7 days", "result": "robust Ca2+ response"}, {"measurement": "EC50 of glutamate-induced Ca2+ response", "setting": "[4]; stemness-induced ANs (Regenix), glutamate increments, 1/2 serial dilutions", "result": "within the μM range"}, {"measurement": "EC50", "setting": "[1]", "result": 1.16, "unit": "µM"}, {"measurement": "EC50 of glutamate-induced Ca2+ response", "setting": "[1]; Phoenix ANs, glutamate increments, 1/2 serial dilutions", "result": "within the μM range"}, {"measurement": "EC90", "setting": "[1]; first glutamate stimulation of phoenix auditory neurons, read-out: glutamate concentration given as EC90", "result": 10, "unit": "µM"}, {"measurement": "Induction of Ca2+ transients", "setting": "[1]", "result": "Robust Ca^2+ transients"}]}, {"molecule": "C=C(C)[C@H]1CN[C@H](C(=O)O)[C@H]1CC(=O)O", "note": "[kainate]", "values": [{"measurement": "Evoked Ca2+ transients", "setting": "[5]", "result": "did not respond"}, {"measurement": "Induction of Ca2+ transients", "setting": "[1]", "result": "failed to induce Ca2+ excitatory transmission"}, {"measurement": "Induction of Ca2+ transients", "setting": "[1]; listed as Kainate", "result": "no effect"}, {"measurement": "Evoked Ca2+ transients", "setting": "[6]", "result": "did not respond"}]}, {"molecule": "B1", "values": [{"measurement": "number of glial cells (exclusively GFAP positive cells)", "setting": "[7]", "result": "increased in general in a dose depended manner"}, {"measurement": "number of neurons (exclusively beta-III-tubulin positive cells)", "setting": "[7]", "result": "increased in general in a dose depended manner"}, {"measurement": "total neurite outgrowth", "setting": "[7]", "result": "increased in general in a dose depended manner"}, {"measurement": "Intersections (approximated number of neurons with outgrowth)", "setting": "[8]", "result": "rose significantly in a dose-dependent manner"}, {"measurement": "Neurite outgrowth (neurite length index, NLI)", "setting": "[8]", "result": "significantly enhanced"}]}, {"molecule": "B2", "values": [{"measurement": "number of glial cells (exclusively GFAP positive cells)", "setting": "[7]", "result": "increased in general in a dose depended manner"}, {"measurement": "number of neurons (exclusively beta-III-tubulin positive cells)", "setting": "[7]", "result": "increased in general in a dose depended manner"}, {"measurement": "total neurite outgrowth", "setting": "[7]", "result": "increased in general in a dose depended manner"}, {"measurement": "Intersections (approximated number of neurons with outgrowth)", "setting": "[8]", "result": "rose significantly in a dose-dependent manner"}, {"measurement": "Neurite outgrowth (neurite length index, NLI)", "setting": "[8]", "result": "significantly enhanced"}]}]}
